In patent publication US20030144360A1, “Composition and method for modulating BAR/FXR receptor activity” (Allergan Sales, Inc., priority 2001, published 2003):

Columns and labels:
[1] = target: T1, BAR/FXR (BAR-RXR heterodimer) (UniProt P19793+Q62735); assay: Transient cotransfection luciferase reporter assay, full-length BAR/FXR and RXR in CV-1 cells; design: repression of the BAR/RXR heterodimer: dose or concentration left out as unconfirmed; settings: for activation of BAR/FXR (luciferase expression): 5 μM, 40 hours
T1 sequence (Q62735 1-469): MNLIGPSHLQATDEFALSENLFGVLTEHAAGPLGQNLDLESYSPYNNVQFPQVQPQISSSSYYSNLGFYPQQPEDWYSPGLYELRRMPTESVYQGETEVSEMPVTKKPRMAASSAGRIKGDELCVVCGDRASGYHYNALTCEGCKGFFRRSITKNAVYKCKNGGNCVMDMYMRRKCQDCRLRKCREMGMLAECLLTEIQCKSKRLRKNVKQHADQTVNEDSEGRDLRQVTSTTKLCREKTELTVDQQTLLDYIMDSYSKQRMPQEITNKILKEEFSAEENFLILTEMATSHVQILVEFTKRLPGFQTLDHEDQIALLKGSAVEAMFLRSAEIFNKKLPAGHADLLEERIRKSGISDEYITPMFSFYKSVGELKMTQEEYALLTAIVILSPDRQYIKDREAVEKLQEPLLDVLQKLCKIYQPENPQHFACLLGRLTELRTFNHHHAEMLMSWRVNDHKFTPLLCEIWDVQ
T1 sequence (P19793 1-462): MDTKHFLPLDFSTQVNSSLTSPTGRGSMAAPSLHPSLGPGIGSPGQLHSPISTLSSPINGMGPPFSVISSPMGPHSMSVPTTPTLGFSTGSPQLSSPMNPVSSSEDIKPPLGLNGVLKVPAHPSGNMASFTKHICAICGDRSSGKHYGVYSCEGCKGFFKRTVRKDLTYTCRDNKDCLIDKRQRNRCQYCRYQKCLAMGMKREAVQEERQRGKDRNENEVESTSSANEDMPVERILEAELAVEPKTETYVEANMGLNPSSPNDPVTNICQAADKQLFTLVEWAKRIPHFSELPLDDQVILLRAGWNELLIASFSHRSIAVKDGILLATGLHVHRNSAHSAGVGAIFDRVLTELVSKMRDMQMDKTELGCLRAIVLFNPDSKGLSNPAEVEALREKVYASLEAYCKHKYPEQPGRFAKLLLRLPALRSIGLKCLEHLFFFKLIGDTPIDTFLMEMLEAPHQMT

[2] = test system: Caco-2 cells; assay: Northern blot analysis of BAR/FXR target genes in differentiated Caco-2 cells; type: cell-based, human; settings: for IBABP expression / SHP expression: 10 μM, 24 hours
Experimental: Caco-2 cells were maintained for 20 days post-confluence to allow differentiation. They were fed twice a week with their regular media during this period.
(§1) One day prior to treatment, confluent HepG2 and differentiated Caco-2 cells were switched to phenol red-free media containing resin-charcoal stripped FBS and then treated for and additional 24 hours with the indicated compounds. Total RNA was isolated using the Trizol reagent. Northern blots were prepared from polyA^+ RNA using the Oligotex method (Qiagen) and analyzed with the following probes: human CYP7A (accession #M93133) nucleotides 1617-2576 (Karam and Chiang, 185 Biochem. Biophys. Res. Commun. 588 (1992)), human SHP (accession #L76571) nucleotides 888-1355, human IBABP (accession # A1311734), an EST containing the entire coding sequence of IBABP.
(§2) We next tested the ability of AGN 29 and AGN 31 to regulate BAR/FXR target genes. We used the hepatoma cell line HepG2 as a hepatocyte model as this cell line has been used extensively to study cholesterol metabolism and bile acid-mediated gene regulation. We monitored the expression of two well known BAR/FXR target genes: CYP7A, the rate-limiting enzyme for bile acid synthesis, is down regulated by bile acids in HepG2 cells.

[3] = test system: HepG2 cells; assay: Northern blot analysis of BAR/FXR target genes in HepG2 cells; type: cell-based, human; settings: for CYP7A expression / BAR/FXR expression / GAPDH expression / transcription of SHP: 24 hours
Experimental: as §1, §2
To verify that AGN34 represses BAR/FXR […], we looked at its effect on BAR/FXR target genes in cultured cells by Northern blot analysis.

| repression of the BAR/RXR heterodimer [1] [fold] | repression of CDCA-activated transcription ([1]; 0.03 μM AGN 34, constant concentration of CDCA) | repression of CDCA-activated BAR-mediated transcription ([1]; 50 μM CDCA + 1 μM AGN 34) [fold] | basal activity of luciferase gene expression ([1]; AGN 34 (1 μM) without CDCA) | concentration showing maximal activity (repression) ([1]; constant concentration of CDCA) [µM] | CYP7A expression ([3]; AGN 34 alone) | CYP7A expression ([3]; combination of AGN 34 and CDCA) | Structure (SMILES) | basal SHP levels ([2]; 1 μM AGN 34, 24 hours) | CDCA-induced IBABP levels ([2]; 100 μM CDCA + 1 μM AGN34, 24 hours) | basal SHP levels ([3]; 1 μM AGN 34, 24 hours) | EC50 [1] [nM] | activation of BAR/FXR (luciferase expression) [1] [fold] | IBABP expression [2] | SHP expression [2] | BAR/FXR expression ([3]; 10 μM) | CYP7A expression ([3]; 10 μM) | GAPDH expression ([3]; 10 μM) | transcription of SHP ([3]; 10 μM) |
| --- | --- | --- | --- | --- | --- | --- | --- | --- | --- | --- | --- | --- | --- | --- | --- | --- | --- | --- |
| ~10 | approximately 85% | ~10 | did not affect | 1 | repressed | repressed even further | CCCCCCOc1c(\C(C)=C/C=C/C(C)=C/C(=O)O)cc(C(C)C)cc1C(C)C [AGN 34, (2E, 4E, 6Z)-7-(2-Hexyloxy-3,5-diisopropylphenyl)-3-methylocta-2,4,6-trienoic Acid] | did not affect | reduced the induced IBABP levels close to basal levels | did not affect | – | – | – | – | – | – | – | – |
| – | – | – | – | – | – | – | Cc1cc2c(cc1/C(=C/c1ccc(C(=O)O)cc1)[Si](C)(C)C)C(C)(C)CCC2(C)C [AGN 29, (Z)-4-[2-(3,5,5,8,8-Pentamethy1-5,6,7,8-tetrahydronaphthalen-2-yl)-2-(trimethylsilyl)vinyl]benzoic Acid] | – | – | – | ~2000 | 91 | strongly induced | strongly induced | no effect | repress | no effect | induce |
| – | – | – | – | – | – | – | CCCC/C(=C\c1ccc(C(=O)O)cc1)c1ccc2c(c1)C(C)(C)CCC2(C)C [AGN 31, 4-[2-(5,5,8,8-Tetramethyl-5,6,7,8-tetrahydronaphthalen-2-yl)hex-1-enyl]benzoic Acid] | – | – | – | ~2000 | 85 | strongly induced | strongly induced | no effect | repress | no effect | induce |
